Measurements published in patent US10357546B2, “Acceleration of diabetic wound healing” (University of Notre Dame du Lac, priority 2014, dated 2019).

Assays:
MMP-8 = MMP-8 (Homo sapiens (Human), UniProt P22894); assay: Enzyme inhibition, MMP-8 catalytic domain; assay type: biochemical
Experimental: (§1) Inhibitor stock solutions (10 mM) were prepared freshly in DMSO before enzyme inhibition assays. […] Enzyme inhibition studies were carried out using a Cary Eclipse fluorescence spectrophotometer (Varian, Walnut Creek, Calif., USA).

MMP-9 [1] = molecular target: T1, MMP-9 (Homo sapiens (Human), UniProt P14780); assay: Enzyme inhibition, MMP-9 catalytic domain; assay type: biochemical; conditions: for residence time: calculated as 1/koff
Target sequence in this assay (P14780 107-444): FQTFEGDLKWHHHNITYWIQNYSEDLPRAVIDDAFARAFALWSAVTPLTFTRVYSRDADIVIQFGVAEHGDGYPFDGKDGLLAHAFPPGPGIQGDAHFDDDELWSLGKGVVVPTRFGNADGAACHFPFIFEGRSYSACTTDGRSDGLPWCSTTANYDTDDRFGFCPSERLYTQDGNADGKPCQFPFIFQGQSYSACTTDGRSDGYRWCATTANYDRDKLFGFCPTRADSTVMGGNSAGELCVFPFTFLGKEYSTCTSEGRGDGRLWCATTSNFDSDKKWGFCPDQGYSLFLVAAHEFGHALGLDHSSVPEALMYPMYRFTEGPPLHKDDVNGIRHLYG
Experimental: as §1

[2] = tested on: ultraviolet B irradiated murine skin; conditions: Kobayashi & Shinkai (2005); cited from earlier work
MMP-2 = MMP-2 (Homo sapiens (Human), UniProt P08253); conditions: for comparison; cited from earlier work
Chain of MMP-2 (P08253 110-660, species assumed): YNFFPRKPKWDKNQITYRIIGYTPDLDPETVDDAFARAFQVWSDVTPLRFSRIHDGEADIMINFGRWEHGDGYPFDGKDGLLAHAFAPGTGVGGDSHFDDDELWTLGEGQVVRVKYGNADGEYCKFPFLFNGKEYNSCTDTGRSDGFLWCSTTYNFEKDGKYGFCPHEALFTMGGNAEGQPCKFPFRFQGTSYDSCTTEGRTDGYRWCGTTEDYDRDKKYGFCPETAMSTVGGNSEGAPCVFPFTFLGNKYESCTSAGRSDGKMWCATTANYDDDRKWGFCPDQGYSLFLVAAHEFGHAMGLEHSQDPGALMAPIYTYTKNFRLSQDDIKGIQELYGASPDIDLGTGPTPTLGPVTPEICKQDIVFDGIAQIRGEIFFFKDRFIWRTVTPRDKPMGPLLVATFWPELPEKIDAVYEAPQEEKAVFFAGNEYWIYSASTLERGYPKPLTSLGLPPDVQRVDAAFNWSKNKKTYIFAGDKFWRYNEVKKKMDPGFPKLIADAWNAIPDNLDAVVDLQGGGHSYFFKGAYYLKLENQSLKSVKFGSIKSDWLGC

MMP-9 [3] = molecular target: T1, MMP-9; conditions: for comparison; cited from earlier work
Target sequence in this assay (P14780 94-707, species assumed): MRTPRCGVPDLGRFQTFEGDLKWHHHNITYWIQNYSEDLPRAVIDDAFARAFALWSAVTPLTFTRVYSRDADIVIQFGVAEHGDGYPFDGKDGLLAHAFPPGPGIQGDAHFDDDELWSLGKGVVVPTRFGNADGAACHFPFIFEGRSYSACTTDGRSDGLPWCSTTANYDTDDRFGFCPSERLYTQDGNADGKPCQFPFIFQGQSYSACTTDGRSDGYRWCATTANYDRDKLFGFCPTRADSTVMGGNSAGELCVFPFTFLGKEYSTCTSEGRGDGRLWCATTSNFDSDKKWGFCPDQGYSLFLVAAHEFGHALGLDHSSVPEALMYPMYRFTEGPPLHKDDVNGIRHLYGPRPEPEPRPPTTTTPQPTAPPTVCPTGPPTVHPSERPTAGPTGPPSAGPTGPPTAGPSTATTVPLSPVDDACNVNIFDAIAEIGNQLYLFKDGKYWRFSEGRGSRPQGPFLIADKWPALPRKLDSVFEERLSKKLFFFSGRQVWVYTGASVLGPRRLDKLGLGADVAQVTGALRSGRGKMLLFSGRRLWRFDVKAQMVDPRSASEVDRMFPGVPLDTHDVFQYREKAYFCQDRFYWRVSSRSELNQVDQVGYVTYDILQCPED

Chain of MMP-8 (P22894 100-262): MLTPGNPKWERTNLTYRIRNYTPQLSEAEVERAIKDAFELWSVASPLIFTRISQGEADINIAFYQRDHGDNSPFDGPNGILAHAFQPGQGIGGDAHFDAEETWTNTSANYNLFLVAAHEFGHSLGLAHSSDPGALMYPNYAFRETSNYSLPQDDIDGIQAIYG

Row | Molecule | Ki (MMP-8) [nM] | Inhibition type, MMP-9 (MMP-9 [1]) | Ki (MMP-9 [1]) [nM] | residence time (MMP-9 [1]) [min] | further results
1 | CCOC(=O)Oc1ccc(Oc2ccc(S(=O)(=O)CC3CS3)cc2)cc1 (stereo not shown) [ND-395] | 11000 | slow-binding | 930 | 119 | –
2 | O=S(=O)(CC1CS1)c1ccc(Oc2ccccc2)cc1 (stereo not shown) [SB-3CT, reference compound] | – | slow-binding | – | – | –
3 | CCC(=C/[C@H](C)C/C=C/C(C)=C/[C@@H](C)C(=O)[C@@H](C)[C@H](O)[C@@H](C)C/C(C)=C/C(=O)O)/C=C/[C@@H]1OC(=O)C=C[C@@H]1C [leptomycin B] | – | – | – | – | inflammation in ultraviolet B irradiated murine skin [2]: suppressed inflammation
4 | O=S(=O)(CC1CS1)c1ccc(Oc2ccc(O)cc2)cc1 (stereo not shown) [p-OH SB-3CT] | 2600 | slow-binding | 160 | 24.5 | Inhibition type, MMP-8 (MMP-8): non-competitive
5 | TIMP1: endogenous protein inhibitor, tissue inhibitor of metalloproteinase | – | – | – | – | residence time of TIMP on MMP-2 (MMP-2): 6.9 min; residence time of TIMP on MMP-9 (MMP-9 [3]): 7.9 min
